Measurements: patent publication US12325677B2, “Carboxylic acid-type lipid, and lipid particle and lipid membrane each comprising carboxylic acid-type lipid” (Toray Industries, Inc., priority 2018, dated 2025)

What was measured:
[1] = Thickness of lipid membrane from SEM observation image; assay type: physicochemical; settings: lipid supported on fiber sheet base (hemostatic materials E1 to E4), SEM ×5,000
Method: The thickness of the lipid membrane is preferably 10 to 1,000 nm, more preferably 30 to 500 nm, and still more preferably 60 to 240 nm. The method of measuring the lipid membrane is as follows. The lipid membrane is observed with a scanning electron microscope (SEM). The thickness of five points optionally selected in the SEM observation image is measured, and the mean is regarded as the thickness of the lipid membrane.
An SEM observation image (×1,000) of the base complex before supporting a lipid is shown in FIG. 5, and SEM observation images (×1,000) of the hemostatic materials E1 to E4 are shown in FIGS. 6 to 9, respectively.

guinea pig-derived PRP = test: Evaluation of platelet aggregation capacity of hemostatic material (in vitro), protein assay of attached platelets; assay type: cell-based; settings: lipid supported on the base part in place of DHSG, Asp-DHSG, Glu-DHSG and AG-DHSG
Method: From the hemostatic materials D1, D2, D3 and D4, a base part (fiber sheet part) supporting DHSG, Asp-DHSG, Glu-DHSG and AG-DHSG, respectively, was taken out. To a 12-well plate, the base part (fiber sheet part) that was taken out and 1 mL of guinea pig-derived PRP (2.0×10^5/μL) prepared by the abovementioned method were added. Thereafter, ADP ([…], 100 μL) that activates platelets was added, and after allowing to stand at room temperature for 5 minutes, the mixture was washed with 1 mL of DPBS twice. Thereafter, to dissolve platelets attached to the base part (fiber sheet part), 500 μL of 0.5% Triton X was added, followed by allowing to stand at room temperature for 1 hour to obtain a platelet lysate. To a 96-well plate, […] of the platelet lysate prepared by the abovementioned method and 150 μL of PIERCE (trademark) 660 nm Protein Assay Kit were added, followed by allowing to stand for 5 minutes. By measuring absorbance at 660 nm using a microplate reader, proteins were quantitatively determined, and the determination results were used as an index of the count of platelets which were not washed away and were attached to the fiber sheet. The results in FIG. 4 are relative values when the platelet count in using the hemostatic material D1 is regarded as 1. […]

Row | Structure (SMILES) | Thickness of the lipid membrane [1] | Platelets detected on the base part (fiber sheet part) as a result of washing (guinea pig-derived PRP)
1 | CCCCCCCCCCCCCCCC(=O)OC[C@H](COP(=O)([O-])OCC[N+](C)(C)C)OC(=O)CCCCCCCCCCCCCCC [DPPC, 1,2-dipalmitoyl-sn-glycero-3-phosphatidylcholine] |  | no platelets were detected
2 | CCCCCCCCCCCCCCCCOC(=O)CCC(NC(=O)CCC(=O)O)C(=O)OCCCCCCCCCCCCCCCC [DHSG, 1,5-Dihexadecyl-N-Succinyl-L-Glutamate, reference compound] | 131 nm | 

Now from value to molecule, other results behind:

Row | Thickness of the lipid membrane [1] | Structure (SMILES) | Platelets detected on the base part (fiber sheet part) as a result of washing (guinea pig-derived PRP)
3 | 153 nm | CCCCCCCCCCCCCCCCOC(=O)CCC(NC(=O)CCC(=O)NC(CC(=O)O)C(=O)O)C(=O)OCCCCCCCCCCCCCCCC (centres unmarked) [Asp-DHSG] | 
4 | 187 nm | CCCCCCCCCCCCCCCCOC(=O)CCC(NC(=O)CCC(=O)NC(CCC(=O)O)C(=O)O)C(=O)OCCCCCCCCCCCCCCCC (centres unmarked) [Glu-DHSG] | 
5 | 124 nm | CCCCCCCCCCCCCCCCOC(=O)CCC(NC(=O)CCC(=O)NC(CCC(=O)NC(CC(=O)O)C(=O)O)C(=O)NC(CC(=O)O)C(=O)O)C(=O)OCCCCCCCCCCCCCCCC (centres unmarked) [AG-DHSG] | 
